Measurements from patent US7932376B2, “Pyrimidine-based non-nucleotide composition and method for inhibiting platelet aggregation” (Inspire Pharmaceuticals, Inc., priority 2005, dated 2011).
Like-named read-outs stand apart in the source and are kept apart here.

System: ADP-induced aggregation of washed platelets
Experiment: Inhibition of ADP-induced aggregation of washed platelets
Format: cell-based
Settings: human washed platelets, light transmission aggregometry, 2 min pre-incubation with inhibitor before ADP, read-out: IC50 as inhibitors of ADP-induced aggregation of washed platelets
Description: Isolation of platelets: Human blood is obtained from informed healthy adult volunteers. Blood is collected into one-sixth volume of acid/citrate/dextrose (ACD) buffer (85 mM sodium citrate, 65 mM citric acid, and 110 mM glucose). Collected blood is placed in a water bath at 37° C. for 30 minutes. Blood is then centrifuged at 275×g for 16 minutes at room temperature and the platelet-rich plasma is removed and centrifuged at 2200×g for 13 minutes at room temperature. […]
Aggregation Studies: ADP-induced platelet aggregation is determined by measuring the transmission of light through a 0.5 ml suspension of stirred (1000 rpm) washed platelets in a lumi-aggregometer at 37° C. […] Platelet aggregation is initiated by the addition of indicated concentrations of ADP or other agonists, and the light transmission is continuously recorded for at least 8 min. When inhibitors of platelet aggregation are tested, platelets are incubated for 2 min in the presence of indicated concentrations of inhibitor before addition of ADP or other agonists, and the response is recorded for at least 8 min. The potency of agonists and inhibitors of platelet aggregation is calculated from both the rate of aggregation and the maximal extent of aggregation obtained for each determination by fitting the data to a four-parameter logistic equation using the GraphPad software package (GraphPad Corp. San Diego, Calif.). […]

IC50 (Platelet) [µM]	IC50 [µM]	Structure (SMILES)
23.5		CCNC(=O)Nc1ccn([C@@H]2O[C@H](COCc3ccccc3C(=O)O)C3O[C@H](/C=C/c4ccccc4)O[C@@H]32)c(=O)n1 (stereo partly drawn) [Compound 1, 2′,3′-trans-cinnamylacetal-5′-(2-carboxy)benzyloxy-6-N-ethylurea cytidine]
	1.3	CCNC(=O)Nc1ccn(C2OC(COCc3c(F)cccc3C(=O)O)C3OC(/C=C/c4ccccc4)OC32)c(=O)n1 (stereo not drawn) [Compound 2, 2′,3′-trans-cinnamylacetal-5′-(2-carboxy-6-fluoro)benzyloxy-6-N-ethylurea cytidine]
